Values joined by “and” are separate entries in the source; they are usually repeats but may differ in a detail not shown here. Equal values may be shown once.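 Test compounds were applied to cells in 96-well plates for 48 hours at 5 doses. Abbreviation: GI50, concentration required for 50% inhibition of growth. TGI marks complete inhibition of growth.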 Bounds are passed on as bounds.

We go through 23 compounds from PubChem BioAssay (NCI).

What all share (test): DTP human tumour cell line panel, 48 h
The test system of test [1] is HCT-116 colon.
Test [2] concerns HL-60(TB) leukemia.
For test [3], the system named is HOP-62 NSCLC.
Test [4] relates to IGROV1 ovarian.
Test [5] concerns K-562 leukemia.
Test [6] has as its system SK-MEL-5 melanoma.
Test [7] deals with U251 CNS.
Test [8] concerns UACC-257 melanoma.

What is called TGI is the concentration giving total growth inhibition. Low readings indicate more potent growth arrest, high ones less potent growth arrest. What is called GI50 is the concentration at which growth is held to half of that of the control. With `COc1cc2c(c(OC)c1OC)-c1ccc(SC)c(=O)cc1[C@@H](NC(=O)c1ccc(OC(C)=O)cc1)CC2`, the total growth inhibition concentration (TGI) in test [1] was 0.0514 µM and 0.015 µM; in test [2] it was 20.5 µM; in test [3], 22.2 µM; in test [4], over 100 µM; in test [5], 6.03 µM; in test [7], 0.0544 µM. In addition, in test [8], the concentration for total growth inhibition (TGI) stood at 19.2 µM. Besides, the 50% growth inhibitory concentration (GI50) in test [3] was 0.0126 µM; in test [6], 0.0196 µM.
Consider `S=c1[nH]c(=S)c2sc(=S)n(-c3ccccc3)c2[nH]1`, for which the TGI in test [1], in test [2], in test [3], in test [4], in test [5] and in test [6] was over 100 µM each time. Further, the concentration for total growth inhibition (TGI) in test [7] and in test [8] was over 100 µM each time.
Consider `COc1ccc2c([nH]c3cc(O)c(C)cc32)c1C=O`, for which the TGI in test [1], in test [2], in test [3], in test [4], in test [5] and in test [6] was over 25 µM in each case. Moreover, the TGI in test [7] was over 25 µM.
Consider `COC(=O)/C=C(C)/C=C/c1cc(C(C)=O)c(C)o1`, for which the TGI in test [1], in test [2], in test [3], in test [4], in test [5] and in test [7] was over 100 µM in each case. Further, the TGI in test [8] is over 100 µM.
Regarding `CCCCCCCCCCC(C)CCCCCCC(=O)OCC(COP(=O)([O-])OCC[N+](C)(C)C)OC(=O)CCCCCCC(C)CCCCCCCCCC` (centres undefined), the TGI in test [1], in test [2], in test [3], in test [4], in test [5] and in test [6] was over 100 µM in each case. Also, the TGI in test [7] and in test [8] was over 100 µM throughout.
Turning to `CCOC(=O)/C(=C\c1ccc(OCc2ccccc2)c(OC)c1)C(=O)c1ccccc1`, the TGI in test [1] worked out at 31.3 µM; in test [2] it was 49 µM; in test [3] it was 33.6 µM; in test [4], 64.6 µM; in test [5], 48.3 µM; in test [6], 31.9 µM. In addition, the TGI in test [7] is 31.1 µM; in test [8], over 10 µM.
In the case of `Cc1nc2c(=O)[nH]c(=O)n(C)c2[nH]c1=O`, the total growth inhibition concentration (TGI) in test [1], in test [2], in test [3], in test [4], in test [5] and in test [6] was over 100 µM in each case. Moreover, the concentration for total growth inhibition (TGI) in test [7] and in test [8] was over 100 µM throughout.
Turning to `CC(=O)NC1=C(Nc2ccc(C)cc2)C(=O)c2ccccc2C1=O`, the total growth inhibition concentration (TGI) in test [1] is 48.5 µM; in test [2], 41.1 µM; in test [3] it was 37.6 µM; in test [4] it was 50.8 µM; in test [5], over 75 µM; in test [6], 20.4 µM. The figures for the TGI in test [7] and in test [8] were over 75 µM and 51.5 µM, respectively.
Turning to `c1nc2cscc2c2cscc12`, the TGI in test [1], in test [2], in test [3], in test [4], in test [5] and in test [7] was over 100 µM throughout. Moreover, the concentration for total growth inhibition (TGI) in test [8] is over 100 µM.
With `CC1Cc2c(N)nc(NN)nc2NC1=O` (centres undefined), the concentration for total growth inhibition (TGI) in test [1], in test [2], in test [3], in test [4], in test [5] and in test [6] was over 100 µM throughout. Also, the concentration for total growth inhibition (TGI) in test [7] and in test [8] was over 100 µM throughout.
With `C=CC[C@H]1C[C@@]2(C)OC[C@H](C(C)C)N2C1=O`, the TGI in test [1], in test [3], in test [4], in test [5], in test [6] and in test [7] was over 100 µM throughout. The TGI in test [8] is over 100 µM.
Turning to `Cc1cccc(C)c1NC(=O)CCCC(=O)CC(=O)/C=C/c1ccccc1`, the concentration for total growth inhibition (TGI) in test [1], in test [4], in test [5], in test [6], in test [7] and in test [8] was over 100 µM in each case.
Turning to `CC(=O)[CH-]C(=O)c1ccccc1.CC(=O)[CH-]C(=O)c1ccccc1.CC(=O)[CH-]C(=O)c1ccccc1.[Tl+3]`, the GI50 is 28.2 µM in test [1]; 4.83 µM in test [2]; 33.5 µM in test [3]; 24.5 µM in test [4]; 2.32 µM in test [5]; 24.4 µM in test [6]. For the same compound, the GI50 in test [7] was 42.6 µM; in test [8], 26.3 µM. The TGI in test [1] is over 100 µM; in test [2], 16.9 µM; in test [3], 99.9 µM; in test [4] it was over 68.6 µM; in test [5], over 100 µM; in test [6] it was over 66.8 µM. Moreover, the TGI in test [7] was over 100 µM; in test [8], 82.7 µM.
As to `Cc1cc(O)c(C(=O)CC2(O)C(=O)Nc3c(Cl)cc(Cl)cc32)c(=O)o1` (centres undefined), the TGI in test [1], in test [2], in test [3], in test [4], in test [5] and in test [6] was over 100 µM throughout. Moreover, the TGI in test [7] and in test [8] was over 100 µM in each case.
`N/N=C(\CC1OC(=O)c2ccccc21)c1ccco1` (centres undefined): the TGI in test [1], in test [2], in test [4], in test [5], in test [6] and in test [8] was over 100 µM in each case.
On to `CC(=O)OCC1OC(OC2CC3C(C)(C)C(OC(C)=O)CC[C@]3(C)C3CCC45CC4(CC[C@H]5C(C)CC(O)[C@@H](O)C(C)(C)O)[C@]23C)C(O)C(O)C1O` (some centres undefined), for which the concentration for total growth inhibition (TGI) was 13.8 µM and 21.7 µM in test [1]; 11.9 µM and 5.3 µM in test [2]; 11.8 µM and 25.9 µM in test [3]; 13.7 µM and 14.4 µM in test [4]; 13.8 µM and 18.7 µM in test [5]; 13.2 µM and 19.7 µM in test [6]. Moreover, the TGI in test [7] is 12.3 µM and 15.6 µM; in test [8] it was 13.8 µM and 20.7 µM. Also, the GI50 in test [2] is 2.45 µM; in test [3] it was 12.1 µM; in test [4], 4.63 µM; in test [5] it was 3.47 µM; in test [7], 4.3 µM.
For `Clc1ccc(-n2nnc(C3=NCCCN3)c2-c2ccccc2)cc1`, the TGI in test [1], in test [2], in test [3], in test [4], in test [5] and in test [6] was over 100 µM each time. Moreover, the total growth inhibition concentration (TGI) in test [7] and in test [8] was over 100 µM throughout.
For the compound `O=[N+]([O-])c1ccc(Sc2c3ccccc3nc3ccccc23)cc1`, the concentration for total growth inhibition (TGI) in test [1], in test [2], in test [3], in test [4], in test [5] and in test [6] was over 100 µM in each case. Besides, the TGI in test [7] and in test [8] was over 100 µM throughout.
As for `C1CNCCNCCNCCN1`, the TGI in test [1], in test [2], in test [3], in test [4], in test [5] and in test [6] was over 100 µM in each case. The results for the TGI in test [7] and in test [8] were 81.5 µM and over 100 µM, respectively.
Take `COc1ccc(C(=O)C(c2ccc(OC)cc2)C2(O)C(=O)Nc3c(C)cc(Cl)cc32)cc1` (centres undefined): the total growth inhibition concentration (TGI) in test [1], in test [2], in test [3], in test [4], in test [5] and in test [7] was over 100 µM throughout. The same compound returned a total growth inhibition concentration (TGI) in test [8] of over 100 µM.
Take `CC(C)=CC(=O)Oc1ccc([N+](=O)[O-])cc1`: the total growth inhibition concentration (TGI) was over 100 µM in test [1]; 59.5 µM in test [2]; over 100 µM in test [3]; over 100 µM in test [4]; over 100 µM in test [5]; over 100 µM in test [6]. Further, the TGI in test [7] and in test [8] was over 100 µM in each case.
`N#CCc1ccc(C(C#N)/C(CCCC(=O)Nc2cccc([N+](=O)[O-])c2)=N\NC(=O)NN)cc1` (centres undefined): the TGI in test [1], in test [2], in test [3], in test [4], in test [5] and in test [6] was over 100 µM each time. The total growth inhibition concentration (TGI) in test [7] and in test [8] was over 100 µM throughout.
As to `CC(=O)OCSc1ncnc2c1ncn2CN1CCOCC1`, the total growth inhibition concentration (TGI) in test [1], in test [2], in test [3], in test [4], in test [5] and in test [6] was over 100 µM each time. Also, the TGI in test [7] and in test [8] was over 100 µM throughout.
